According to patent publication US4602015A, “2-piperazinopyrimidine salt and pharmaceutical compositions containing it” (priority 1983, dated 1986):

How the values were obtained:
[1] = system: prochlorperazine-induced catalepsy; test: antagonism of prochlorperazine-induced catalepsy (cork test, oral); format: in vivo, Wistar male rats; details: rat; for Prochlorperazine Catal. antag. ED50: 1 h before prochlorperazine 10 mg/kg s.c., interval in parentheses printed on next line: napsilate (5.0-6.4), base (12-45)
Description: The antidepressive activity of the compound of the invention has been evaluated in the test of antagonism of prochlorperazine-induced catalepsy (K. Biziere et al., Arzneimittel Forschung, 1982, 32 (II), 824-831). The 2-(1-piperazinyl)pyrimidine napsilate and the corresponding free base, as reference compound, were administered orally to groups of 10 Wistar male rats weighing 220-240 g; at the same time control animals were treated with saline. One hour later, prochlorperazine was administered subcutaneously at a dose of 10 mg/kg. Five hours after this administration, the number of cataleptic animals was assessed by the cork test. According to this test the animals were placed with their forepaws on a stand formed by three superposed corks (11 cm total height) and forced to maintain this position for 20 seconds at least. The performances of each group of animals were compared with those of the controls having received the vehicle and prochlorperazine only.

[2] = system: rotational behaviour after unilateral lesion of the striatum; test: rotational behaviour in mice after unilateral 6-hydroxydopamine lesion of the striatum; format: in vivo, Female Charles River CD1 mice; details: for Variation % of turns as compared to controls: Table II, mouse, oral, 1 h after administration, doses 0.15 (base), 0.18 (hydrochloride), 0.34 (napsilate) mg/kg = 0.15 mg/kg free base, ** p < 0.01, ns not significant
Description: (§1) The dopaminergic mechanism of the compound of the invention was studied in comparison with the corresponding free base and its hydrochloride by analysing the rotational behaviour in mice after unilateral lesion of the striatum (P. Protais et al., J. Pharmacol. 1976, 7, 251-255).
(§2) Female Charles River CD1 mice weighing 20-24 g were previously subjected to a unilateral lesion of the striatum by stereotaxic injection of 8 mcg/animal of 6-hydroxydopamine. A week later, the 2-(1-piperazinyl)-pyrimidine napsilate, the 2-(1-piperazinyl)pyrimidine hydrochloride and the free base were administered by oral route to groups of six mice at a dose corresponding to 0.15 mg/kg of free base. The number of turns was recorded, during 2 minutes, one hour after the administration of the three products. The turns ipsilateral to the lesion were plotted as positive values, the contralateral turns were plotted as negative values. The algebric sum of turns for each group of treated animals was compared to that of control animals treated with the vehicle (saline) only.

[3] = system: rotational behaviour after unilateral lesion of the striatum; test: rotational behaviour in lesioned mice, time course 60, 180 and 360 minutes; format: in vivo, Female Charles River CD1 mice; details: for Variation % of turns after 60 minutes: Table III, mouse, oral, dose corresponding to 0.15 mg/kg free base, ** p < 0.01, ns not significant
Description: as §1, §2
The dopaminergic action of the compound of the present invention has also been evaluated in the time in comparison with the corresponding free base and the hydrochloride thereof.

[4] = system: rotational behaviour after unilateral lesion of the striatum; test: as above; format: in vivo, Female Charles River CD1 mice; details: Table III, mouse, oral, dose corresponding to 0.15 mg/kg free base, ** p < 0.01, ns not significant
[5] = H. W. Stewart et al., J. Org. Chem. 1953; cited from earlier work
[6] = psychotropic activity (general statement); format: in vivo

| Compound | Prochlorperazine Catal. antag. ED50 [1] [mcmol/kg] | Variation % of turns as compared to controls [2] [%] | effect on algebric sum of turns (in words) ([2]; comment on Table II) | Variation % of turns after 60 minutes [3] [%] | activity with time (in words) ([3]; comment on Table III) | Variation % of turns after 180 minutes [4] [%] | Variation % of turns after 360 minutes [4] [%] | analgesic or antifilarial activity (in words) [5] | dopaminergic activity (in words) ([2]; comment on Table II) | oral activity relative to corresponding free base (times more active) ([1]; ratio versus free base) | negative variation of turns ([2]; comment on Table II, contralateral turns exceed ipsilateral turns) | potency versus reference products (in words) ([3]; comment on Table III, versus free base and hydrochloride) | psychotropic activity (in words) ([6]; dopaminergic mechanism, antipsychotic, antidepressive, tranquillizing-sedative) | activity versus free base and hydrochloride (in words) ([6]; in the absolute sense) | duration of activity (in words) ([6]; in vivo) |
| --- | --- | --- | --- | --- | --- | --- | --- | --- | --- | --- | --- | --- | --- | --- | --- |
| c1cnc(N2CCNCC2)nc1 [2-(1-piperazinyl)pyrimidine base, 2-(1-piperazinyl)pyrimidine] | 24 | -94 | significantly reduces the algebric sum of turns | -94 | tends to decrease with the time | -62 | -60 | none of which has shown analgesic or antifilarial activity | – | – | – | – | – | – | – |
| Cl.c1cnc(N2CCNCC2)nc1 [2-(1-piperazinyl)pyrimidine hydrochloride] | – | -29 | no significant effect | -29 | inactive with the time too | -28 | -22 | – | nearly inactive | – | – | – | – | – | – |
| c1cnc(N2CCNCC2)nc1 [2-(1-piperazinyl)pyrimidine napsilate, 2-(1-piperazinyl)pyrimidine 2-naphtalenesulfonate] | 5.7 | -117 | – | -117 | increases significantly with the time | -126 | -147 | – | dopaminergic activity higher than that of the free base | about 4 times | higher than 100% | more potent than the reference products | very good psychotropic activity | much more active | long-lasting and increases with time |
